# Measured values: patent US20190119284A1, “ErbB Inhibitors and Uses Thereof” (The Regents of the University of California, priority 2016, published 2019)
# Tests used:
# EGFR = EGFR (Homo sapiens, UniProt P00533); experiment: Nanosyn in vitro kinase profiling: EGFR; format: biochemical; conditions: for inhibition at 1 µM: compound at 1 μM
# Experimental: (§1) This was confirmed by in vitro profiling against a panel of kinases, with compound 2 only showing potent inhibition of EGFR and Ab1 (Table 2).
# (§2) In vitro Kinome Screen. In vitro profiling of compound 2 at 100 nM was conducted by Nanosyn.
# CSK = CSK (Homo sapiens, UniProt P41240); experiment: Nanosyn in vitro kinase profiling: CSK; format: biochemical; conditions: for inhibition at 1 µM: compound at 1 μM
# Chain of CSK (P41240 whole entry, species assumed): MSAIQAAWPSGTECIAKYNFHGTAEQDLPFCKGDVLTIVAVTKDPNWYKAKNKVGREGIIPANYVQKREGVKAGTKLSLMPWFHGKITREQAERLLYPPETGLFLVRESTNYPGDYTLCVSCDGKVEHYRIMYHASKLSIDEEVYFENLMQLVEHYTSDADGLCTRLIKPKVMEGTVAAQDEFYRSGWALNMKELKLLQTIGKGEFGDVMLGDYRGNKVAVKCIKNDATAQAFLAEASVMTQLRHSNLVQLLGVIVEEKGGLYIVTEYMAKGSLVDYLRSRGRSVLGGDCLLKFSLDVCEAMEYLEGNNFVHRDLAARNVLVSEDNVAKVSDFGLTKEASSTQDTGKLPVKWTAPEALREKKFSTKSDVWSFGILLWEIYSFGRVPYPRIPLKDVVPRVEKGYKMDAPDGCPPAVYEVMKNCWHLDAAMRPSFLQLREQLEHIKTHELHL
# Experimental: as §1, §2
# CHEK1 = target: T1, CHEK1 (Homo sapiens, UniProt O14757); experiment: Nanosyn in vitro kinase profiling: CHEK1; format: biochemical; conditions: for inhibition at 1 µM: compound at 1 μM
# T1 sequence (O14757 1-476): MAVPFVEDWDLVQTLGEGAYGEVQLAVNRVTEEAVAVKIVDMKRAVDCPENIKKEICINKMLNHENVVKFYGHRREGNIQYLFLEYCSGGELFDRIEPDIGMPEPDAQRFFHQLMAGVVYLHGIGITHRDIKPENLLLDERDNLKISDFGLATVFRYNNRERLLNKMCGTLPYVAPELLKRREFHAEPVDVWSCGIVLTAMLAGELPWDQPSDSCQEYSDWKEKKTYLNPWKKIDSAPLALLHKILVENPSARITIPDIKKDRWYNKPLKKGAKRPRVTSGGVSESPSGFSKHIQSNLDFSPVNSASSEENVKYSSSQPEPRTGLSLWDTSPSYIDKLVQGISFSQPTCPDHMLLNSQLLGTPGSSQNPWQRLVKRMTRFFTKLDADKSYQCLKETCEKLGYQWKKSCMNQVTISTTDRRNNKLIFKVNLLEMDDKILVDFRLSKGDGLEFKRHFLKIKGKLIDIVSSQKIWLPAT
# Experimental: as §1, §2
# SYK = SYK (Homo sapiens, UniProt P43405); experiment: Nanosyn in vitro kinase profiling: SYK; format: biochemical; conditions: for inhibition at 1 µM: compound at 1 μM
# Experimental: as §1, §2
# JNK2 = JNK2 (Homo sapiens, UniProt P45984); experiment: Nanosyn in vitro kinase profiling: JNK2; format: biochemical; conditions: for inhibition at 1 µM: compound at 1 μM
# Chain of JNK2 (P45984 whole entry, species assumed): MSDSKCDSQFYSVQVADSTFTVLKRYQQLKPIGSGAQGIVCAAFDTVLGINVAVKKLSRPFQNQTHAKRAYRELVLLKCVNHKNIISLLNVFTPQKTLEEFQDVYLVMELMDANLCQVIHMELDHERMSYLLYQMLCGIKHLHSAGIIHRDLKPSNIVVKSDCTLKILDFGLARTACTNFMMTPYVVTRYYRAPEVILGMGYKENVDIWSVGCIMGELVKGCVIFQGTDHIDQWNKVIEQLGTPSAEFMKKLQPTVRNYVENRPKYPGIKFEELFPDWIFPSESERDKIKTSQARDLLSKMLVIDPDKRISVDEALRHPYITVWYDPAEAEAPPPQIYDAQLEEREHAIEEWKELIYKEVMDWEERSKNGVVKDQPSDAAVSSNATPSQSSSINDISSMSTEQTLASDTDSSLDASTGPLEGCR
# Experimental: as §1, §2
# PKC-ALPHA = PKC-ALPHA (Homo sapiens, UniProt P17252); experiment: Nanosyn in vitro kinase profiling: PKC-ALPHA; format: biochemical; conditions: for inhibition at 1 µM: compound at 1 μM
# Experimental: as §1, §2
# PDGFR-ALPHA = PDGFR-ALPHA (Homo sapiens, UniProt P16234); experiment: Nanosyn in vitro kinase profiling: PDGFR-ALPHA; format: biochemical; conditions: for inhibition at 1 µM: compound at 1 μM
# Experimental: as §1, §2
# CDK2 = CDK2 (Homo sapiens, UniProt P24941); experiment: Nanosyn in vitro kinase profiling: CDK2; format: biochemical; conditions: for inhibition at 1 µM: compound at 1 μM
# Experimental: as §1, §2
# SRC = SRC (Homo sapiens, UniProt P12931); experiment: Nanosyn in vitro kinase profiling: SRC; format: biochemical; conditions: for inhibition at 1 µM: compound at 1 μM
# Chain of SRC (P12931 whole entry): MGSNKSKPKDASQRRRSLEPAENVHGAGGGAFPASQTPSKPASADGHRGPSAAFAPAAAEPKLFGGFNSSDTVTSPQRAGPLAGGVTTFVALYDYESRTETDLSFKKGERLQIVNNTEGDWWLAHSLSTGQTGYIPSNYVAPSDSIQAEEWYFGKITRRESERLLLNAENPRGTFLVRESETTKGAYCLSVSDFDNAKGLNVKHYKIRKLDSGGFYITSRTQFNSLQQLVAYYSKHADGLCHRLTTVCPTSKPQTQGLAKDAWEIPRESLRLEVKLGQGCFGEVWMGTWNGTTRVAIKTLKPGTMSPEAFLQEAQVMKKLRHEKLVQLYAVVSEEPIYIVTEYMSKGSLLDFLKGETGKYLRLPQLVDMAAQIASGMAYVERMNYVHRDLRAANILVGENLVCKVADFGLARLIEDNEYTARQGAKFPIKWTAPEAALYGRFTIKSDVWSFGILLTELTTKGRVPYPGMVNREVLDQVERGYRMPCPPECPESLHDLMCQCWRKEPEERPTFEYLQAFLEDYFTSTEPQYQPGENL
# Experimental: as §1, §2
# IRAK4 = target: T2, IRAK4 (Homo sapiens, UniProt Q9NWZ3); experiment: Nanosyn in vitro kinase profiling: IRAK4; format: biochemical; conditions: for inhibition at 1 µM: compound at 1 μM
# T2 sequence (Q9NWZ3 1-460): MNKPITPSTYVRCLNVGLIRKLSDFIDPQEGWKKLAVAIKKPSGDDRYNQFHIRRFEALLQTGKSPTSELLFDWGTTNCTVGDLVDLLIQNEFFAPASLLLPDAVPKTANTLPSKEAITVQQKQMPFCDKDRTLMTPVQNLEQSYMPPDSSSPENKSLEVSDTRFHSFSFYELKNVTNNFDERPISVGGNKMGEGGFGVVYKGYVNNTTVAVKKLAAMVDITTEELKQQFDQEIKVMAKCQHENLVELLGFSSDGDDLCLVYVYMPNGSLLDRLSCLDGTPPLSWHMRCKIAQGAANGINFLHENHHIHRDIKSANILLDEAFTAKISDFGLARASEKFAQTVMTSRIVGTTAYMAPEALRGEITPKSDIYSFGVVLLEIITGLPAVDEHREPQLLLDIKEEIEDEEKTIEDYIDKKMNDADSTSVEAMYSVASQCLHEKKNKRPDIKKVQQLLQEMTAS
# Experimental: as §1, §2
# P38-ALPHA = P38-ALPHA (Homo sapiens, UniProt Q16539); experiment: Nanosyn in vitro kinase profiling: P38-ALPHA; format: biochemical; conditions: for inhibition at 1 µM: compound at 1 μM
# Chain of P38-ALPHA (Q16539 whole entry): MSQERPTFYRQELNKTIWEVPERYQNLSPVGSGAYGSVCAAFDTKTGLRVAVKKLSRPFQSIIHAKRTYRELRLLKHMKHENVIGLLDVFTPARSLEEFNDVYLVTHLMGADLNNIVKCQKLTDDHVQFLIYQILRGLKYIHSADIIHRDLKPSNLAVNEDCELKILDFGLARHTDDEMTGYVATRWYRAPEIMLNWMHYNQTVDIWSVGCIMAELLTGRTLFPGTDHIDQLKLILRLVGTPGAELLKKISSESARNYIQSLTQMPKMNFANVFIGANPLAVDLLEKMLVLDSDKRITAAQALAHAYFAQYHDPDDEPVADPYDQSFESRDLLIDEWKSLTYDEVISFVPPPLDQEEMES
# Experimental: as §1, §2
# GSK-3-BETA = GSK-3-BETA (Homo sapiens, UniProt P49841); experiment: Nanosyn in vitro kinase profiling: GSK-3-BETA; format: biochemical; conditions: for inhibition at 1 µM: compound at 1 μM
# Experimental: as §1, §2
# AMP-A1B1G1 = AMP-A1B1G1 (Homo sapiens, UniProt Q13131); experiment: Nanosyn in vitro kinase profiling: AMP-A1B1G1; format: biochemical; conditions: for inhibition at 1 µM: compound at 1 μM
# Chain of AMP-A1B1G1 (Q13131 whole entry): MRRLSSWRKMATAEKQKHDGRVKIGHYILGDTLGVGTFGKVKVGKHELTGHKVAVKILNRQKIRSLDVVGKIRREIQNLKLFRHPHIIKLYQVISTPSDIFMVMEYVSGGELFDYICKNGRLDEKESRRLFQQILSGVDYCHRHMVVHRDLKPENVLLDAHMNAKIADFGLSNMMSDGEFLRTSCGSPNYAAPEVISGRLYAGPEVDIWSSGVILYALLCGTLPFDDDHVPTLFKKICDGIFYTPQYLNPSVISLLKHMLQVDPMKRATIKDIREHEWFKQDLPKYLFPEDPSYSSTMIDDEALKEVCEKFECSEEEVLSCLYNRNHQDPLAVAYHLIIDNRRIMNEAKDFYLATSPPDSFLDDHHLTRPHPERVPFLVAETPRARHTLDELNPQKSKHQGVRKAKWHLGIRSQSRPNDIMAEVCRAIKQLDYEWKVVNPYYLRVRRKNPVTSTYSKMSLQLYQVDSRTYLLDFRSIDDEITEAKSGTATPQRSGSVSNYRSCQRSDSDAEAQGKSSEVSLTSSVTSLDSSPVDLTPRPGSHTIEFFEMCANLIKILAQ
# Chain of AMP-A1B1G1 (Q9Y478 whole entry partner): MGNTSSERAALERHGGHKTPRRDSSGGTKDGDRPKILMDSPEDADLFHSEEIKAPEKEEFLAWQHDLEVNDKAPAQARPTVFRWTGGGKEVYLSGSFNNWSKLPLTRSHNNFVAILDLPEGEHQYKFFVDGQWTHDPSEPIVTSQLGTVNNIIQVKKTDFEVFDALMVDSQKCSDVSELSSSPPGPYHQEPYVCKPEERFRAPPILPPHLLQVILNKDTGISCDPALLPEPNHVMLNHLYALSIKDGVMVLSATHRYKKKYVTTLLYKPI
# Chain of AMP-A1B1G1 (P54619 whole entry partner): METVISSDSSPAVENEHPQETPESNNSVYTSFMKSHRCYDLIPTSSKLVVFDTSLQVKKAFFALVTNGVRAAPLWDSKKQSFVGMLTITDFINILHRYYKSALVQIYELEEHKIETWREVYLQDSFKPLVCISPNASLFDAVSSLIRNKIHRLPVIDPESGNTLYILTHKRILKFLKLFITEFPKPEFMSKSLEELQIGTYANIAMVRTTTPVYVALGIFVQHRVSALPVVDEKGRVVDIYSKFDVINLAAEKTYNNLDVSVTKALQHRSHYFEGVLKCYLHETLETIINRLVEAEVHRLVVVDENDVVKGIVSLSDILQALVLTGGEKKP
# Experimental: as §1, §2
# [1] = tested on: HER2YF/HER3E928G (2YF/3EG) Ba/F3 cells; experiment: Ba/F3 proliferation assay, 2YF/3EG +/- NRG; format: cell-based; conditions: + NRG vs no NRG
# Description: Consistent with the results in the HER2 overexpressing cell lines, CW-2 cells that harbor a HER3-activating mutation were equally sensitive to compound 3+/−NRG in both proliferation and signaling assays (FIGS. 6A-6B). […] To further evaluate the potential of compound 3 against HER2 mutants within a HER2/HER3 heterodimer we transduced wt HER3 containing Ba/F3 cells with reported HER2 oncogenic mutants in the HER2YF construct.
# For HER2YF/3EG Ba/F3 cells were selected according to the protocol for the HER2YF/3TM Ba/F3's with the exception that no NRG was supplemented in the media during IL-3 independent selection.
# Proliferation Assays. For adherent cell lines, cells were plated onto opaque white 96 well plates (Greiner cat #655083) and allowed to adhere overnight. The following day media was changed to fresh media that contained either DMSO or the indicated concentration of drug plus NRG (50 ng/mL final concentration) as indicated. Plates were incubated at 37° C. for 72 h and proliferation was read out using Cell Titer Glo (Promega) according to the manufacturer's protocol. For Ba/F3 cell proliferation, cells, drug dilution, and any necessary growth factors (10 ng/mL IL-3 or 6.25 ng/mL NRG) were combined in a well of a 96 well plate. Plates were incubated at 37° C. for 48 h and proliferation was read out using Cell Titer Glo according to the manufacturer's protocol. For all normalized assays, proliferation was normalized to the DMSO control condition. All graphs were plotted in GraphPad Prism 6 and fit with a non-linear regression of the log(inhibitor) vs response with a variable slope where shown. All graphs are averages (+/−standard deviation) of biological triplicates each performed in technical triplicate unless otherwise noted. If only one biological replicate was performed standard deviations were derived from the technical replicates.
# Chain of EGFR (P00533 25-1210): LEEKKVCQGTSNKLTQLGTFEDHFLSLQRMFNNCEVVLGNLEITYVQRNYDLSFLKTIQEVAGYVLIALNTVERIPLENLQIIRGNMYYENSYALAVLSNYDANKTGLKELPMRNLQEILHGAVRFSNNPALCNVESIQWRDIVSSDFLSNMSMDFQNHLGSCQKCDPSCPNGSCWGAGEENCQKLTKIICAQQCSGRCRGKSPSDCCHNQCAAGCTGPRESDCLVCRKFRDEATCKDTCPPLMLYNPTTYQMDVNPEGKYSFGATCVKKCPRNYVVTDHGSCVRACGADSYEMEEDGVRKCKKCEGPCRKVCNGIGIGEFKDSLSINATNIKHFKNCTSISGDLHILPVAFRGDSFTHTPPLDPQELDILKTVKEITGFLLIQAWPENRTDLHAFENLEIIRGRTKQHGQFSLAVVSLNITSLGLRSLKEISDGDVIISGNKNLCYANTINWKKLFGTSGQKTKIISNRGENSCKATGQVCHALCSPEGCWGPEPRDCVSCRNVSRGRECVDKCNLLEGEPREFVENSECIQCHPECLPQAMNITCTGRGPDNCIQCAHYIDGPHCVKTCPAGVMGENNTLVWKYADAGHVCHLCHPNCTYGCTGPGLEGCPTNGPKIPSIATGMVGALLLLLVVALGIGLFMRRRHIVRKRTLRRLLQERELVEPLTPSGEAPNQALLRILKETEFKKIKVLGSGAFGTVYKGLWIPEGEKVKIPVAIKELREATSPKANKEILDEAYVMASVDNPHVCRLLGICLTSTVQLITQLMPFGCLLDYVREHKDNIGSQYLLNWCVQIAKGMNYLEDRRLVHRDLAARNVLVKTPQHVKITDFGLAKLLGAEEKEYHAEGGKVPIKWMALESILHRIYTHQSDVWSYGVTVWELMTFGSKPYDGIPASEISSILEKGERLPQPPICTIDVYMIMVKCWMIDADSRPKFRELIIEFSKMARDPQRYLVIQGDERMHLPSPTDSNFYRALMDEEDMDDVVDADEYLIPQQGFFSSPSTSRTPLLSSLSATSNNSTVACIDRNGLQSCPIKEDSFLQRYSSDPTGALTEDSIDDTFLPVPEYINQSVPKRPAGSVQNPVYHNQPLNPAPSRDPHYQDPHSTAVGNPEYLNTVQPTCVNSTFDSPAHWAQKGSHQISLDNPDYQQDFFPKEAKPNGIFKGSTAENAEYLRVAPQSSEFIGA
SMILES,inhibition at 1 µM (EGFR),inhibition at 1 µM (CSK),inhibition at 1 µM (CHEK1),inhibition at 1 µM (SYK),inhibition at 1 µM (JNK2),inhibition at 1 µM (PKC-ALPHA),inhibition at 1 µM (PDGFR-ALPHA),inhibition at 1 µM (CDK2),inhibition at 1 µM (SRC),inhibition at 1 µM (IRAK4),inhibition at 1 µM (P38-ALPHA),inhibition at 1 µM (GSK-3-BETA),inhibition at 1 µM (AMP-A1B1G1),reduction of sensitivity on addition of NRG [1],also measured
"COc1ccc(-c2ccco2)cc1Nc1ncnc2[nH]nc(-c3ccco3)c12 [compound 2, 3-(furan-2-yl)-N-(5-(furan-2-yl)-2-methoxyphenyl)-1H-pyrazolo[3,4-d]pyrimidin-4-amine]",96.9%,24.8%,2.27%,-6.41%,6.62%,5.57%,52.5%,17.6%,88.9%,1.42%,12.9%,68.8%,12.9%,,inhibition at 0.1 µM (EGFR; compound at 100 nM): 95.6%; inhibition at 0.1 µM (CSK; compound at 100 nM): 6.96%; inhibition at 0.1 µM (CHEK1; compound at 100 nM): 0.965%; inhibition at 0.1 µM (SYK; compound at 100 nM): -2.12%; inhibition at 0.1 µM (JNK2; compound at 100 nM): 1.07%; inhibition at 0.1 µM (PKC-ALPHA; compound at 100 nM): 1.24%; inhibition at 0.1 µM (PDGFR-ALPHA; compound at 100 nM): 11.8%; inhibition at 0.1 µM (CDK2; compound at 100 nM): 4.14%; inhibition at 0.1 µM (SRC; compound at 100 nM): 63.2%; inhibition at 0.1 µM (IRAK4; compound at 100 nM): 1.47%; inhibition at 0.1 µM (P38-ALPHA; compound at 100 nM): 6.61%; inhibition at 0.1 µM (GSK-3-BETA; compound at 100 nM): 20.5%; inhibition at 0.1 µM (AMP-A1B1G1; compound at 100 nM): 2.69%
"COc1ccc(-c2ccoc2)cc1Nc1ncnc2[nH]cc(-c3cc[nH]n3)c12 [compound 3, N-(5-(furan-3-yl)-2-methoxyphenyl)-5-(1H-pyrazol-3-yl)-7H-pyrrolo[2,3-d]pyrimidin-4-amine]",99%,62%,10%,35%,7%,30%,66%,10%,95%,34%,2%,40%,20%,less than 5 fold,
CS(=O)(=O)CCNCc1ccc(-c2ccc3ncnc(Nc4ccc(OCc5cccc(F)c5)c(Cl)c4)c3c2)o1 [lapatinib],,,,,,,,,,,,,,55 fold,
